# Experiments:
# [1] = metabolic stability assay in rat liver microsomes; format: in vitro ADME; details: for microsomal CLint at 1 μM: pH 7.4, male Wistar rat liver microsomes, 0.5 mg protein/mL, 1 μM test compound, NADPH
# Method: Hepatic clearance is the most important drug elimination mechanism in the body and many marketed compounds are cleared by hepatic cytochrome P450-mediated metabolism. The excretion or elimination property of the test compounds was determined with a metabolic stability assay according to Obach R S (Drug Metab. Dispos. 1999, 27(11), 1350-1359).
# Assays were performed in 96-deepwell-plates using liver microsomes pooled from male Wistar rats (Corning). Rat liver microsomal incubations were conducted in duplicate and incubation mixtures consisted of liver microsomes (0.5 mg microsomal protein/mL), test compound (1 μM), MgCl2 (2 mM), and NADPH (1 mM) in a total volume of 0.7 ml sodium phosphate buffer (100 mM, pH 7.4). Reactions were commenced with the addition of NADPH and shaken on a horizontal shaker with a fitted heating block at 37° C. At t=0 min and the time points: 10 min, 30 min and 60 min; aliquots (70 μL) were removed from the incubations and added to 140 μl termination mixtures. Termination mixtures consisted of acetonitrile supplemented with diazepam, diclofenac and griseofulvin as internal analytical standards. The quenched samples were processed by mixing and centrifugation (2,200×g, 5 minutes). The particle free supernatant was diluted 1+1 with deionised water and subsequently subjected to LC-MS for quantitative bioanalysis in terms of test compound depletion (pump flow rate: 600 μL/min; Kinetex Phenyl-Hexyl analytical column 2.6 μm, 50×2.1 mm (Phenomenex, Germany)). Incubations containing verapamil at a concentration of 1 μM were used as high clearance positive control (PC; n=2), and incubations without NADPH (70 μl phosphate buffer (supplemented with 2 mM MgCl2) instead of 70 μL NADPH solution), in order to verify that any apparent loss of test item in the assay incubation was due to metabolism, were used as negative control (NC; n=2).
# Clint data allow to predict the hepatic clearance in vivo, or, in other words, can be used as an indicator for the half life of a compound in vivo and its oral bioavailability. Highly cleared compounds are generally considered to be unfavourable as they are rapidly cleared in vivo resulting in a short duration of action. Said another way, a lower in vitro intrinsic clearance is usually indicative of a longer half life in vivo and of a better oral bioavailability.
# [2] = Caco-2 cell permeability assay (efflux ratio); format: in vitro ADME, human; details: human, Caco-2, Papp B to A/Papp A to AB, differentiated Caco-2 cell monolayer; read-out: Caco-2 BA/AB (efflux ratio)
# Method: (§1) The permeability of the test compounds was determined with a Caco-2 cell permeability assay according to Hubatsch I. et al (Nat. Protoc. 2007, 2 (9), 2111-2119).
# (§2) The Caco-2 cell line is a continuous cell of heterogeneous human epithelial colorectal adenocarcinoma cells. When cultured as a confluent monolayer on a permeable support such as a cell culture insert filter, the cells differentiate to form a polarized epithelial cell monolayer that provides a physical and biochemical barrier to the passage of ions and small molecules. In form of the confluent monolayer, the Caco-2 cells serve in the pharmaceutical industry as a well established in vitro model of the human small intestinal mucosa to predict the absorption of orally administered drugs. Assessing transport in both directions (apical to basolateral (A-B) and basolateral to apical (B-A)) across the cell monolayer enables an efflux ratio to be determined which provides an indicator as to whether a compound undergoes active efflux. […] As will be appreciated, active efflux substantially compromises oral bioavailability.
# [3] = target: T1, human bradykinin B2 receptor (hB2R) (Homo sapiens, UniProt P30411); assay: cell-based human bradykinin B2 receptor calcium mobilization (hB2R-CaM) assay; details: for IC50: HTS041C cells, bradykinin at EC80, calcium mobilization, read-out: IC50-value towards human bradykinin B2 receptor (hB2R)
# T1 sequence (P30411 1-391): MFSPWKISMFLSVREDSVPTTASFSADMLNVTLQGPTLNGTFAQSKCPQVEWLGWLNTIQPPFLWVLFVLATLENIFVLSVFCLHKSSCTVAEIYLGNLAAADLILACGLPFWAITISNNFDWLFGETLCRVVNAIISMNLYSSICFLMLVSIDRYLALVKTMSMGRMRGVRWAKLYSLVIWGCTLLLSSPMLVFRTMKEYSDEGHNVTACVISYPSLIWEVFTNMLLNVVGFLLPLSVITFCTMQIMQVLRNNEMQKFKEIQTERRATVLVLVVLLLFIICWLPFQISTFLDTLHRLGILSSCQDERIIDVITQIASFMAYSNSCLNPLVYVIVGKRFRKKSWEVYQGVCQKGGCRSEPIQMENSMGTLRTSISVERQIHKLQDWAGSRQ
# Procedure, shortened: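 HTS041C cells stably expressing hB2R were serum-reduced, loaded with Calcium 6 dye and pre-incubated with compound (8-point, n=2, 0.1% DMSO) for 25 min at 37° C. Bradykinin was then added at EC80. IC50 came from a 4-parameter logistic fit of the max-min fluorescence signal (485/525 nm).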
# [4] = test system: differentiated Caco-2 cell monolayer; assay: Caco-2 cell permeability assay (efflux ratio); format: in vitro ADME, human; details: Papp B to A/Papp A to AB
# Method: as §1, §2
SMILES,fold lower Clint as compared to Comparative Compound No. 171 ([1]; versus Comparative Compound No. 171),fold lower Clint as compared to Comparative Compound No. 174 ([1]; versus Comparative Compound No. 174),efflux ratio [2],IC50 [3],microsomal CLint at 1 μM [1],Caco-2 BA/AB (efflux ratio) [4],fold improvement of relative IC50 as compared to Comparative Compound No. 169 ([3]; versus Comparative Compound No. 169),fold improvement of relative IC50 as compared to Comparative Compound No. 172 ([3]; versus Comparative Compound No. 172)
"Cc1cc(-c2ncnn2C)c2cccc(OCc3c(Cl)cc(F)cc3[C@H](C)NC(=O)COC(F)F)c2n1 [Compound 6, (S)—N-(1-(3-chloro-5-fluoro-2-((2-methyl-4-(1-methyl-1H-1,2,4-triazol-5-yl)quinolin-8-yloxy)methyl)phenyl)ethyl)-2-(difluoromethoxy)acetamide]",17.8 fold,4.8 fold,1,≤ 0.05 µM,–,–,–,–
Cc1cc(-n2cc(F)cn2)c2cccc(OCc3c(Cl)cncc3C(C)NC(=O)[C@H](C)O)c2n1 (stereo partly shown) [compound 169],–,–,> 2,–,427 µL/min/mg,3.4,–,–
"Cc1cc(-n2cc(F)cn2)c2cccc(OCc3c(Cl)cc(F)cc3[C@H](C)NC(=O)[C@@H](C)O)c2n1 [Compound 1, (R)—N—((S)-1-(3-chloro-5-fluoro-2-((4-(4-fluoro-1H-pyrazol-1-yl)-2-methylquinolin-8-yloxy)methyl)phenyl)ethyl)-2-hydroxypropanamide]",–,–,0.7,0.051 to 0.25 µM,56 µL/min/mg,–,–,–
"[2H][C@@](C)(NC(=O)COC(F)F)c1cc(F)cc(Cl)c1COc1cccc2c(-c3ncnn3C)cc(C)nc12 [Compound 11, (S)—N-(1-deutero-1-(3-chloro-5-fluoro-2-((2-methyl-4-(1-methyl-1H-1,2,4-triazol-5-yl)quinolin-8-yloxy)methyl)phenyl)ethyl)-2-(difluoromethoxy)acetamide]",–,–,1.3,≤ 0.05 µM,20 µL/min/mg,–,–,–
Cc1cc(-n2cc(F)cn2)c2cccc(OCc3c(Cl)cc(F)cc3[C@H](C)NC(=O)[C@H](C)O)c2n1 [Compound 13],–,–,0.6,0.251 to 1 µM,13 µL/min/mg,–,7.5 fold,3.8 fold

# More lines, now with the values ahead:
fold lower Clint as compared to Comparative Compound No. 171 ([1]; versus Comparative Compound No. 171),fold lower Clint as compared to Comparative Compound No. 174 ([1]; versus Comparative Compound No. 174),efflux ratio [2],IC50 [3],microsomal CLint at 1 μM [1],Caco-2 BA/AB (efflux ratio) [4],fold improvement of relative IC50 as compared to Comparative Compound No. 169 ([3]; versus Comparative Compound No. 169),fold improvement of relative IC50 as compared to Comparative Compound No. 172 ([3]; versus Comparative Compound No. 172),SMILES
–,–,1.1,–,132 µL/min/mg,–,–,–,"Cc1cc(-n2cc(F)cn2)c2cccc(OCc3c(Cl)cccc3C(C)NC(=O)[C@@H](C)O)c2n1 (stereo partly shown) [compound 173, reference compound]"
–,–,1.3,–,135 µL/min/mg,–,–,–,"Cc1cc(-c2ncnn2C)c2cccc(OCc3c(Cl)cccc3C(C)NC(=O)COC(F)F)c2n1 (stereo not shown) [compound 174, reference compound]"
–,–,–,–,–,7.7,–,–,Cc1cc(-c2ncnn2C)c2cccc(OCc3c(Cl)cncc3C(C)NC(=O)COC(F)F)c2n1 (stereo not shown) [compound 171]
–,–,1.6,–,56 µL/min/mg,–,–,–,"Cc1cc(-n2cc(F)cn2)c2cccc(OCc3c(Cl)cccc3C(C)NC(=O)[C@H](C)O)c2n1 (stereo partly shown) [compound 172, reference compound]"
–,–,> 2,–,329 µL/min/mg,2.9,–,–,Cc1cc(-n2cc(F)cn2)c2cccc(OCc3c(Cl)cncc3C(C)NC(=O)[C@@H](C)O)c2n1 (stereo partly shown) [compound 170]

# Reference: patent publication US11820756B2, “Bradykinin B2 receptor antagonists” (Pharvaris Netherlands B.V., priority 2017, dated 2023)
